{"source": "patent US20140134735A1", "about": "“Plant Cell Differentiation Promoter” (SHISEIDO COMPANY, LTD., priority 2011, published 2014)", "key": {"[1]": {"tested_on": "Peucedanum japonicum greening tissue masses", "test": "Effect of KODA on differentiation from callus (greening tissue masses) in Peucedanum japonicum", "assay_type": "cell-based", "conditions": "1 μM KODA immersion", "experimental": "Peucedanum japonicum seeds from Yonaguni Island in Okinawa Prefecture were planted in artificial soil (Metro-Mix 360, Sun Grow Horticulture Canada Ltd.) and allowed to germinate under conditions of 20° C. and a 12-hour light-dark cycle. Two months later, the seedling plants were taken out, only the above ground portion was washed well with water, and after disinfecting with 70% alcohol (10 seconds) and a 10-fold dilution of sodium hypochlorite (7 minutes), the seedling plants were rinsed four times with pure water. The petiols were cut out and a cut measuring about 5 mm in length was aseptically made therein followed by planting in MS medium (Wako Pure Chemical Industries, solidified with 0.7% agar) containing 2,4-dichlorophenoxyacetic acid (0.022 mg/L) and kinetin (10.75 mg/L) solidified with 0.7% agar. The petiols were cultured for 2 months under conditions of 25° C. and a light-dark cycle of 12 hours to grow greening tissue masses containing incomplete leaf tissue. Two months later, the greening tissue masses were immersed in 1 μM KODA (KODA treatment group) or water (control group), and placed on MS medium (solidified with 0.7% agar) to which benzyladenine (BA) was added to a concentration of 2 ppm with indoleacetic acid (IAA) to a concentration of 0.1 ppm, 0.5 ppm or 1 ppm. As can be understood from the table, although a large number of differentiated greening plant bodies were obtained from greening tissue masses immersed in KODA, only a small number of differentiated plant bodies were obtained in the control group (water) in the case of 1.0 ppm indoleacetic acid+2.0 ppm benzyladenine."}, "tobacco callus": {"tested_on": "tobacco callus", "test": "Effect of KODA on differentiation from tobacco callus", "assay_type": "cell-based, Nicotiana tabacum", "conditions": "100 μM KODA immersion", "experimental": "After washing tobacco (Nicotiana tabacum) seeds with 70% ethanol, the surfaces of the seeds were sterilized for 3 minutes with 5% sodium hypochlorite and 0.05% Tween 20 followed by washing 5 times with sterilized water. After washing, the seeds were immersed in an aqueous KODA solution (100 μM) followed by planting the washed seeds on solid MS medium (Wako Pure Chemical Industries) containing 3% sucrose, 0.8% agar (Wako Pure Chemical Industries) and 2,4-dichlorophenoxyacetic acid (Kanto Chemical, 3 ppm) with kinetin (Nakarai Tesque, 0.1 ppm) and adjusted to pH 5.7 to induce calluses for 3 weeks under conditions of 25° C. and a light-dark cycle of 16 hours.\nThe above ground portions of the tobacco seedlings that underwent callus induction were removed, and only the root portions in which calluses were present were treated by immersing in 100 μM KODA (KODA treatment group) or water (control group) followed by inducing differentiation of the above ground portions under conditions of 25° C. and a light-dark cycle of 16 hours in solid differentiation medium obtained by adding 3% sucrose, 0.8% agar (Wako Pure Chemical Industries), […] (Nacalai Tesque, 0.2 ppm) and 6-benzyladenine (Nacalai Tesque, 2 ppm) to MS medium contained in plastic Petri dishes and adjusting to pH 5.7. Culturing in the differentiation medium was carried out by transferring to fresh differentiation medium after culturing for 2 weeks, namely for a total of 4 weeks. The resulting above ground portions were excised with a scalpel. The excised above ground portions were immersed in 100 μM aqueous KODA solution (KODA treatment group) or water (control group) followed by planting it in MS medium (100 mL) contained in culture bottles (CB-3, As One), which is prepared by adding sucrose (3%) to MS medium, and adjusting pH to 5.7, and is solidified with 0.8% agar, and then cultured for 4 weeks under conditions of 25° C. and light-dark cycle of 16 hours so as to differentiate below ground portions. […]"}, "[2]": {"tested_on": "Spathiphyllum embryogenic calluses", "test": "Effect of KODA concentration on differentiation from Spathiphyllum callus to normally regenerated plant bodies", "assay_type": "cell-based", "conditions": "0.03, 0.3 or 3 ppm KODA dropped onto calluses; 8 weeks", "description": "Embryogenic calluses subcultured in subculture medium were planted in fresh differentiation medium followed by dropping a 0.03 ppm, 0.3 ppm or 3 ppm aqueous solution of KODA onto the calluses and recording the number of normally regenerated plant bodies 8 weeks later."}, "[3]": {"tested_on": "Spathiphyllum embryogenic calluses", "test": "Effect of KODA treatment time on differentiation from Spathiphyllum callus to adventitious embryo and germinants", "assay_type": "cell-based", "conditions": "for Dehydrated adventitious embryo weight per flask: embryos recovered 6 weeks after planting in differentiation medium", "experimental": "Cultured seedlings subcultured under conditions of 25° C. in a dark location (photosynthetic photon flux density: 5.7 μmole/m^2/sec, day length: 16 hours) in a solid medium obtained by adding 3% sucrose and 0.8% agar (Wako Pure Chemical Industries, Tokyo, Japan) to MS (Murashige and Skoog) medium placed in a flat box (internal volume: 300 ml) manufactured by Asahi Techno Glass followed by adjusting the pH to 5.8 were used as cultured Spathiphyllum seedlings (variety: Double Take).\nSucrose (3%), 2,4-dichlorophenoxyacetic acid (4 ppm), benzyladenine (BA) (0.2 ppm), casein acid hydrolysate (100 ppm) and 5 mM 2-morpholinoethanesulfonic acid monohydrate (MES) were added to MS medium solidified with 0.8% agar to obtain a medium for callus induction and growth (to be referred to as “subculture medium”, pH 5.8). Leaf sheaths were collected from the cultured seedlings during week 4 of subculturing by peeling from the stump and using a roughly 2 cm section containing the peeled portion (leaf sheath base) as an explant. The explants were then planted in a flat box containing the subculture medium (50 ml). When the seedlings were cultured for 8 weeks in a dark location at 25° C., calluses were induced at the peeled portions of the planted seedlings. Embryogenic calluses were selected by subculturing these calluses in 0.2 g/container each of subculture medium and culturing for 1 month. The embryogenic calluses were able to be maintained for 2 years while retaining adventitious embryo induction potency by subculturing to the subculture medium every 4 weeks.\n0.05 g aliquots of the embryonic calluses were planted in 500 ml Erlenmeyer flasks containing 160 ml of MS liquid medium containing sucrose (1%), fructose (1.1%), BA (0.1 ppm) and MES (5 mM) (pH 5.8, to be referred to as “differentiation medium”), followed by shake culturing (80 rpm) for 6 weeks at 25° C. in a dark location (day length: 16 hours, synthetic photon flux density: 22.8 μmole/m^2/sec) to obtain adventitious embryos. 0.2 g aliquots of these adventitious embryos were implanted in MS medium containing sucrose (3%) and obtained by solidifying with agar (0.8%) (pH 5.8, to be referred to as “germination medium”) followed by culturing for 8 weeks at 25° C. in a dark location (day length: 16 hours, photosynthetic photon flux density: 5.7 μmole/m^2/sec) to cause the adventitious embryos to germinate and obtain complete plants.\nEmbryogenic calluses subcultured in subculture medium were subcultured in fresh subculture medium followed by dropping a 3 ppm aqueous solution of KODA onto the calluses after 1 week (7 days), 2 weeks (14 days) or 3 weeks ([…]). The cultured calluses were planted in liquid differentiation medium 3 weeks after the start of subculturing, and the differentiated adventitious embryos were recovered 6 weeks later (FIG. 1), dehydrated and weighed after dehydrating. The adventitious embryos were then planted in germination medium and the numbers of resulting germinants were counted. The number of germinants per 1 g of dehydrated adventitious embryos was calculated from the measurement results (FIG. 2). […] The effect of KODA on inducing adventitious embryos in calluses was therefore thought to be specific to the time at which it is applied."}, "[4]": {"conditions": "normal individuals, freeze-dried"}}, "data": [{"compound": "CC/C=C\\C/C=C\\CC(=O)C(O)CCCCCCCC(=O)O", "note": "(centres unmarked) [KODA, 9-hydroxy-10-oxo-12(Z),15(Z)-octadecadienoic acid]", "values": [{"measurement": "No. of redifferentiated greening plant bodies", "setting": "[1]; IAA (0.1 ppm) + BA (2.0 ppm)", "result": 29}, {"measurement": "No. of redifferentiated greening plant bodies", "setting": "[1]; IAA (0.5 ppm) + BA (2.0 ppm)", "result": 20}, {"measurement": "No. of redifferentiated greening plant bodies", "setting": "[1]; IAA (1.0 ppm) + BA (2.0 ppm)", "result": 27}, {"measurement": "normal individuals among the redifferentiated individuals", "setting": "tobacco callus; control group 30%", "result": 60, "unit": "%"}, {"measurement": "dry weight of above ground portions versus control (FIG. 6)", "setting": "tobacco callus; [4]", "result": "no significant difference at a level of significance of 5%"}, {"measurement": "dry weight of below ground portions versus control (FIG. 6)", "setting": "tobacco callus; [4]", "result": "a significant difference was confirmed at a level of significance of 5%"}, {"measurement": "number of redifferentiated (normally regenerated) plant bodies versus control (FIG. 4)", "setting": "[2]", "result": "increase in comparison with a control group at each concentration"}, {"measurement": "No. of germinants per flask", "setting": "[3]; 3 ppm KODA dropped 1 week after subculture", "result": 431}, {"measurement": "No. of germinants per flask", "setting": "[3]; 3 ppm KODA dropped 2 weeks after subculture", "result": 702}, {"measurement": "No. of germinants per flask", "setting": "[3]; 3 ppm KODA dropped 3 weeks after subculture", "result": 578}, {"measurement": "Dehydrated adventitious embryo weight per flask", "setting": "[3]; 3 ppm aqueous KODA dropped onto calluses 1 week after subculture", "result": 7.1, "unit": "g"}, {"measurement": "Dehydrated adventitious embryo weight per flask", "setting": "[3]; 3 ppm aqueous KODA dropped onto calluses 2 weeks after subculture", "result": 7.2, "unit": "g"}, {"measurement": "Dehydrated adventitious embryo weight per flask", "setting": "[3]; 3 ppm aqueous KODA dropped onto calluses 3 weeks after subculture", "result": 6.8, "unit": "g"}, {"measurement": "adventitious embryos recovered in comparison with control group (FIG. 1)", "setting": "[3]; KODA treatment group, after two weeks", "result": "A large number of adventitious embryos were recovered"}]}]}
